# Laboratory results taken from patent publication US8835476B2, “Synthesis of novel antimicrobials” (priority 2005, dated 2014).
# Target: T1, recombinant E. coli LpxA (Escherichia coli, UniProt P0A722)
# T1 construct: 6xHis (C); made in house; host or cells: E. coli BL21 (pET23b)
# Assay: LpxA assay: acyl-UDP-GlcNAc formation from UDP-[3H]GlcNAc, TLC
# Format: biochemical
# Settings: 5 mM compound; FIG. 8
# Excerpt: The lpxA gene was amplified from an E. coli genomic library and inserted into a pET23b vector using standard recombinant DNA methodology. The 5′ oligonucleotide for amplification of the LpxA open reading frame was 5′-[…]-3′ (SEQ ID NO. 1) and contains a BamHI restriction enzyme site upstream of the LpxA ATG start codon and the 3′ oligonucleotide was 5′-[…]-3′ (SEQ ID NO. 2) and contains a XhoI restriction enzyme site downstream of the final codon of the LpxA open reading frame. Primers were custom synthesized. The primers were designed such that digestion of the amplification product would result in addition of a C-terminal 6×-His tag in frame with the LpxA open reading frame. Specifically, E. coli genomic DNA was isolated and an amplification reaction was carried out as follows: 33 μl water, 5 μl 10× reaction buffer, 1.5 μl of 50 mM magnesium sulfate, 3 μl of 10 mM dNTPs, 3 μl of a 50 μM solution of the 5′ LpxA primer, 3 μl of a 50 μM solution of the 3′ LpxA primer, 0.5 μl of E. coli genomic DNA solution, and 1 μl of polymerase. The reaction conditions were as follows: 94° C. for 2 minutes; followed by 30 cycles of 94° C. for 30 seconds, 50° C. for 30 seconds, 68° C. for 1.5 minutes, followed by an extension at 68° C. for 7 minutes. The resulting LpxA product was separated from other DNA on a 0.8% agarose gel and isolated from the gel. The LpxA open reading frame was cloned into a topoisomerase I-activated vector and transformed into E. coli. […] The newly synthesized plasmid containing the BamHI- and XhoI-flanked LpxA open reading frame and plasmid pET23a were digested with BamHI and XhoI at 37° C. for 2 hours, DNA was separated by agarose gel electrophoresis, isolated from the gel, and ligated. Ligation reactions were transformed into chemically competent E. coli and plasmid DNA was isolated. Restriction mapping was performed to determine which plasmids contained the LpxA open reading frame. To remove the T7 epitope coding sequence from the 5′end of the LpxA open reading frame, the pET23a plasmid containing the LpxA open reading frame was digested with the restriction enzymes BamHI and XhoI and a pET23b plasmid was digested with BglII and XhoI, DNA was separated by agarose gel electrophoresis, isolated from the gel, and ligated. Ligation reactions were transformed into chemically competent E. coli and plasmid DNA was isolated. Restriction mapping was performed to assess plasmids containing the LpxA open reading frame.
# A 5 ml culture of E. Coli BL21 cells expressing the LpxA-6×His plasmid was grown overnight at 37° C. in LB medium containing 50 μg/ml ampicillin and 34 μg/ml chloramphenicol, then subcultured into 500 ml of the same medium and grown at 37° C. until A600=0.6. LpxA expression was induced by addition of 0.5 mM IPTG for three hours. The cells were centrifuged at 7 000×g for 10 minutes at 4° C. and lysed using a mild, nonionic detergent. The soluble fraction containing LpxA was added to 1 ml of nickel affinity resin in a 15 ml Falcon tube; the resin was washed extensively with extraction/wash buffer (50 mM Na-phosphate (pH 7.0) and 300 mM NaCl) prior to use. This mixture was incubated on a rotating platform at low speed for 20 minutes at room temperature. The resin was centrifuged at 1000 rpm in a bench top centrifuge for 2 min, washed twice (10 min each) with 10 ml of extraction/wash buffer, resuspended in 10 ml of extraction/wash buffer, and transferred to a 10 ml polypropylene disposable protein purification column. The column was eluted with 5 ml of 50 mM Na-phosphate (pH 7.0) containing 300 mM NaCl and 150 mM imidazole, collected in 1 ml fractions. The eluate was analysed by SDS-PAGE and was visualised using a protein stain (FIG. 7 inset).
# Recombinant Vibrio harveyi acyl carrier protein was prepared from a GST fusion protein as described previously (Flaman et al., 2001). […]
# T1 sequence (P0A722 whole entry): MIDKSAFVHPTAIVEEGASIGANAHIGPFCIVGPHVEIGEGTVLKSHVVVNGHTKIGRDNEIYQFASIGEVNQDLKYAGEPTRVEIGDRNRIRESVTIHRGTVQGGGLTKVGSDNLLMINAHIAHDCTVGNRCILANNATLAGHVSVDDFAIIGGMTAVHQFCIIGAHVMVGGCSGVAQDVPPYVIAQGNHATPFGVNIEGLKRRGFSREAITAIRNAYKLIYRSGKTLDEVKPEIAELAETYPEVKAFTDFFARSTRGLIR
row,Compound,inhibition at 5000 µM [%]
1,"NC(=O)c1cccc(-c2cc(-c3nnn[nH]3)c(-c3cccc(C(N)=O)c3)s2)c1 [DNM-131H, 5-(2,5-Bis(3-carbamoylphenyl)thiophen-3-yl)-1H-tetrazole]",> 70
2,"Cn1nnnc1-c1cc(-c2ccc(C(=O)O)cc2)sc1-c1ccc(C(=O)O)cc1 [DNM-133E, 5-(2,5-Bis(4-carboxyphenyl)thiophen-3-yl)-1-methyl-1H-tetrazole]",> 70
3,"c1ccc(Cc2cc(-c3nnn[nH]3)c(Cc3ccccc3)s2)cc1 [DNM-131O, 5-(2,5-Dibenzylthiophen-3-yl)-1H-tetrazole]",> 80
4,"COc1cccc(-c2sc(C(=O)O)cc2-c2nnn(C)n2)c1 [DNM-123D, 5-(3-Methoxyphenyl)-4-(2-methyl-2H-tetrazol-5-yl)thiophene-2-carboxylic acid]",> 80
5,"CCOC(=O)c1ccc(-c2cc(-c3nnn[nH]3)c(-c3ccc(C(=O)OCC)cc3)s2)cc1 [DNM-131J, 5-(2,5-Bis(4-(ethoxylcarbonyl)phenyl)thiophen-3-yl)-1H-tetrazole]",> 80
6,"CCOC(=O)c1cc(-c2nnn[nH]2)c(-c2ccccn2)s1 [DNM-124I, Ethyl 5-(pyridin-2-yl)-4-(1H-tetrazol-5-yl)thiophene-2-carboxylate]",> 80
7,"Cn1nnc(-c2cc(-c3ccc(O)cc3)sc2-c2ccc(O)cc2)n1 [DNM-132C, 5-(2,5-Bis(4-hydroxyphenyl)thiophen-3-yl)-2-methyl-2H-tetrazole]",> 80
8,"COc1ccc(-c2sc(C(=O)O)cc2-c2nnn(C)n2)cc1 [DNM-123E, 5-(4-Methoxyphenyl)-4-(2-methyl-2H-tetrazol-5-yl)thiophene-2-carboxylic acid]",> 70
9,"Cn1nnc(-c2cc(C(=O)O)sc2-c2ccccn2)n1 [DNM-123I, 5-(Pyridin-2-yl)-4-(2-methyl-2H-tetrazol-5-yl)thiophene-2-carboxylic acid]",> 70
10,"NC(=O)c1ccc(-c2cc(-c3nnn[nH]3)c(-c3ccc(C(N)=O)cc3)s2)cc1 [DNM-131F, 5-(2,5-Bis(4-carbamoylphenyl)thiophen-3-yl)-1H-tetrazole]",> 80
11,"COc1ccccc1-c1sc(C(=O)O)cc1-c1nnn(C)n1 [DNM-123F, 5-(2-Methoxyphenyl)-4-(2-Methyl-2H-tetrazol-5-yl)thiophene-2-carboxylic acid]",> 80
12,"Oc1cccc(-c2cc(-c3nnn[nH]3)c(-c3cccc(O)c3)s2)c1 [DNM-131A, 5-(2,5-Bis(3-hydroxyphenyl)thiophen-3-yl)-1H-tetrazole]",> 80
13,"Cn1nnnc1-c1cc(C(=O)O)sc1-c1cccc2ccccc12 [DNM-122H, 5-(Naphthalen-1-yl)-4-(1-methyl-1H-tetrazol-5-yl)thiophene-2-carboxylic acid]",> 80
14,"O=C(O)c1cc(-c2nnn[nH]2)c(-c2cccc3ccccc23)s1 [DNM-121H, 5-(Naphthalen-1-yl)-4-(1H-tetrazol-5-yl)thiophene-2-carboxylic acid]",> 70
15,"Cn1nnnc1-c1cc(-c2ccc(O)cc2)sc1-c1ccc(O)cc1 [DNM-133C, 5-(2,5-Bis(4-hydroxyphenyl)thiophen-3-yl)-1-methyl-1H-tetrazole]",> 80
16,"Oc1ccc(-c2cc(-c3nnn[nH]3)c(-c3ccc(O)cc3)s2)cc1 [DNM-131C, 5-(2,5-Bis(4-hydroxyphenyl)thiophen-3-yl)-1H-tetrazole]",> 80
17,"COC(=O)c1ccccc1-c1cc(-c2nnn[nH]2)c(-c2ccccc2C(=O)OC)s1 [DNM-131K, 5-(2,5-Bis(2-(methoxylcarbonyl)phenyl)thiophen-3-yl)-1H-tetrazole]",> 70
18,"Cn1nnc(-c2cc(C(=O)O)sc2-c2ccc(-c3ccccc3)cc2)n1 [DNM-123G, 5-(4-biphenylyl)-4-(2-methyl-2H-tetrazol-5-yl)thiophene-2-carboxylic acid]",> 80
19,"Cn1nnc(-c2cc(C(=O)O)sc2-c2cccc3ccccc23)n1 [DNM-123H, 5-(Naphthalen-1-yl)-4-(2-methyl-2H-tetrazol-5-yl)thiophene-2-carboxylic acid]",> 80
20,"Cn1nnc(-c2cc(-c3cccc(O)c3)sc2-c2cccc(O)c2)n1 [DNM-132A, 5-(2,5-Bis(3-hydroxyphenyl)thiophen-3-yl)-2-methyl-2H-tetrazole]",> 80
21,"Cn1nnnc1-c1cc(C(=O)O)sc1-c1ccc(-c2ccccc2)cc1 [DNM-122G, 5-(4-biphenylyl)-4-(1-methyl-1H-tetrazol-5-yl)thiophene-2-carboxylic acid]",> 80
22,"CCOC(=O)c1cc(-c2nnn[nH]2)c(-c2cccc(F)c2)s1 [DNM-124A, Ethyl 5-(3-fluorophenyl)-4-(1H-tetrazol-5-yl)thiophene-2-carboxylate]",> 80
23,"Cn1nnc(-c2cc(-c3cccc(C(=O)O)c3)sc2-c2cccc(C(=O)O)c2)n1 [DNM-132G, 5-(2,5-Bis(3-carboxyphenyl)thiophen-3-yl)-2-methyl-2H-tetrazole]",> 80
24,"O=C(O)c1ccc(-c2cc(-c3nnn[nH]3)c(-c3ccc(C(=O)O)cc3)s2)cc1 [DNM-131E, 5-(2,5-Bis(4-carboxyphenyl)thiophen-3-yl)-1H-tetrazole]",> 80
25,"Cn1nnc(-c2cc(C(=O)O)sc2-c2cccc(F)c2)n1 [DNM-123A, 5-(3-Fluorophenyl)-4-(2-methyl-2H-tetrazol-5-yl)thiophene-2-carboxylic acid]",> 70
26,"COc1cccc(-c2sc(C(=O)O)cc2-c2nnnn2C)c1 [DNM-122D, 5-(3-Methoxyphenyl)-4-(1-methyl-1H-tetrazol-5-yl)thiophene-2-carboxylic acid]",> 70
27,"Cn1nnnc1-c1cc(-c2cccc(O)c2)sc1-c1cccc(O)c1 [DNM-133A, 5-(2,5-Bis(3-hydroxyphenyl)thiophen-3-yl)-1-methyl-1H-tetrazole]",> 80
